Source: US12024707B2, “Methods and compositions for modulating lncRNAs and methods of treatment based on lncRNA expression” (Washington University, priority 2020, dated 2024)
“And” between values parts separate entries of the source, which are not always exact repeats. Equal entries are not always repeated. Structures can show the parent of a compound that is named as a salt. Where two headings read alike, the source gives them in different places.

System: HT29 RAMS11 overexpressing cells
Assay: High-throughput viability assay (resazurin), 119 FDA-approved anticancer drugs, RAMS11 overexpressing cells (Clone1, Clone2)
[1] = OE1 (RAMS11 overexpression clone 1), 0.1 uM drug, 72 h, vs empty vector control
[2] = OE1 (RAMS11 overexpression clone 1), 1 uM drug, 72 h, vs empty vector control
[3] = OE1 (RAMS11 overexpression clone 1), 10 uM drug, 72 h, vs empty vector control
[4] = OE2 (RAMS11 overexpression clone 2), 0.1 uM drug, 72 h, vs empty vector control
[5] = OE2 (RAMS11 overexpression clone 2), 1 uM drug, 72 h, vs empty vector control
[6] = OE2 (RAMS11 overexpression clone 2), 10 uM drug, 72 h, vs empty vector control

| SMILES | Viability Fold Change [1] | Viability Fold Change [2] | Viability Fold Change [3] | Viability Fold Change [4] | Viability Fold Change [5] | Viability Fold Change [6] | Viability Fold Change |
| --- | --- | --- | --- | --- | --- | --- | --- |
| CCc1c2c(nc3ccc(OC(=O)N4CCC(N5CCCCC5)CC4)cc13)-c1cc3c(c(=O)n1C2)COC(=O)[C@]3(O)CC [Irinotecan HCl] | 0.9198 | 0.9608 | 1.151 | 0.9682 | 0.9711 | 1.068 |  |
| Cc1cn(-c2cc(NC(=O)c3ccc(C)c(Nc4nccc(-c5cccnc5)n4)c3)cc(C(F)(F)F)c2)cn1 [Nilotinib] | 0.8679 | 0.749 | 0.7379 | 1.013 | 0.888 | 0.7462 |  |
| COc1cc2nccc(Oc3ccc(NC(=O)C4(C(=O)Nc5ccc(F)cc5)CC4)cc3)c2cc1OC [Cabozantinib] | 0.9713 | 1.012 | 0.995 | 0.9575 | 1.037 | 0.8731 |  |
| COc1nc(N)nc2c1ncn2[C@@H]1O[C@H](CO)[C@@H](O)[C@@H]1O [Nelarabine] | 0.9819 | 1.033 | 0.9555 | 0.9462 | 1.007 | 0.9701 |  |
| O=C(CCCCCCC(=O)Nc1ccccc1)NO [Vorinostat] | 1.123 | 0.8948 | 1.604 | 1.068 | 1.159 | 1.356 |  |
| C#CCC(Cc1cnc2nc(N)nc(N)c2n1)c1ccc(C(=O)N[C@@H](CCC(=O)O)C(=O)O)cc1 (stereo partly shown) [Pralatrexate] | 0.7405 | 0.9216 | 1.034 | 0.8579 | 0.9781 | 1.119 |  |
| CO[C@H]1C(=O)[C@]2(C)[C@@H](OC)C[C@H]3OC[C@@]3(OC(C)=O)[C@H]2[C@H](OC(=O)c2ccccc2)[C@]2(O)C[C@H](OC(=O)[C@H](O)[C@@H](NC(=O)OC(C)(C)C)c3ccccc3)C(C)=C1C2(C)C [Cabazitaxel] | 2.975 | 3.231 | 2.607 | 2.745 | 2.869 | 2.506 |  |
| C/C(=C\c1csc(C)n1)[C@@H]1C[C@@H]2O[C@]2(C)CCC[C@H](C)[C@H](O)[C@@H](C)C(=O)C(C)(C)[C@@H](O)CC(=O)N1 [Ixabepilone] | 1.657 | 1.943 | 1.722 | 1.773 | 2.017 | 2.056 |  |
| CO[C@H]1C[C@@H]2CC[C@@H](C)[C@@](O)(O2)C(=O)C(=O)N2CCCC[C@H]2C(=O)O[C@H]([C@H](C)C[C@@H]2CC[C@@H](OC(=O)C(C)(CO)CO)[C@H](OC)C2)CC(=O)[C@H](C)/C=C(\C)[C@@H](O)[C@@H](OC)C(=O)[C@H](C)C[C@H](C)/C=C/C=C/C=C/1C [Temsirolimus] | 0.7059 | 0.6733 | 0.6861 | 0.6816 | 0.7302 | 0.693 |  |
| CNC(=O)c1ccccc1Sc1ccc2c(/C=C/c3ccccn3)n[nH]c2c1 [Axitinib] | 0.9514 | 0.9382 | 0.8636 | 0.911 | 1.101 | 0.8143 |  |
| CCN(CC)CCNC(=O)c1c(C)[nH]c(/C=C2\C(=O)Nc3ccc(F)cc32)c1C [Sunitinib] | 0.8337 | 0.8856 | 0.2329 | 0.914 | 0.9165 | 0.5714 |  |
| O=P(O)(O)C(O)(Cn1ccnc1)P(=O)(O)O [Zoledronic acid] | 0.9494 | 0.9911 | 1.01 | 0.9595 | 1.055 | 1.082 |  |
| N[C@@H](Cc1ccc(N(CCCl)CCCl)cc1)C(=O)O [Melphalan] | 0.9214 | 1.006 | 0.9782 | 0.9479 | 1.068 | 0.9942 |  |
| CS(=O)(=O)c1ccc(C(=O)Nc2ccc(Cl)c(-c3ccccn3)c2)c(Cl)c1 [Vismodegib] | 0.8416 | 0.9134 | 0.9421 | 0.9752 | 0.846 | 0.8976 |  |
| O=P1(NCCCl)OCCCN1CCCl (stereo not shown) [Ifosfamide] | 0.9167 | 1.025 | 0.9724 | 0.9226 | 1.055 | 1.058 |  |
| COc1cc2ncnc(Nc3ccc(F)c(Cl)c3)c2cc1OCCCN1CCOCC1 [Gefitinib] | 0.9453 | 1.164 | 1.468 | 0.9436 | 1.227 | 1.392 |  |
| O=C(c1ccc(OCCN2CCCCC2)cc1)c1c(-c2ccc(O)cc2)sc2cc(O)ccc12 [Raloxifene] | 0.9457 | 0.9244 | 0.9067 | 0.9401 | 0.9282 | 0.9671 |  |
| Cc1ccc(C(=O)Nc2ccc(CN3CCN(C)CC3)c(C(F)(F)F)c2)cc1C#Cc1cnc2cccnn12 [Ponatinib] |  |  |  |  |  |  | 1.056 and 0.9383 and 0.9645 and 1.199 and 0.9342 and 1.001 |
| CC(=O)[C@]1(O)Cc2c(O)c3c(c(O)c2[C@@H](O[C@H]2C[C@H](N)[C@H](O)[C@H](C)O2)C1)C(=O)c1ccccc1C3=O [Idarubicin hydrochloride] | 1.365 | 1.73 | 3.603 | 1.573 | 1.623 | 3.696 |  |
| Nc1nc2nc[nH]c2c(=S)[nH]1 [Thioguanine] | 0.9423 | 0.9288 | 0.9702 | 0.8995 | 0.8724 | 1.01 |  |
| CCC1=C[C@@H]2CN(C1)Cc1c([nH]c3ccccc13)[C@@](C(=O)OC)(c1cc3c(cc1OC)N(C)[C@H]1[C@@](O)(C(=O)OC)[C@H](OC(C)=O)[C@]4(CC)C=CCN5CC[C@]31[C@@H]54)C2 [Vinorelbine tartrate] | 0.9568 | 1.194 | 2.913 | 0.9481 | 1.067 | 2.913 |  |
| COc1c2occc2cc2ccc(=O)oc12 [Methoxsalen] | 0.9521 | 0.971 | 0.7883 | 0.8888 | 0.9485 | 0.9406 |  |
| CC[C@H](Nc1ncnc2[nH]cnc12)c1nc2cccc(F)c2c(=O)n1-c1ccccc1 [Idelalisib] | 0.9092 | 0.8875 | 0.9111 | 0.9773 | 0.8852 | 0.8746 |  |
